This is an account of results in paper PMC11062922 (Nature Chemical Biology, 2023).

The target in one assay is T1, ACOX1 (Homo sapiens, UniProt Q15067).
T1 construct: endogenous in cells
T1 sequence (Q15067 1-660): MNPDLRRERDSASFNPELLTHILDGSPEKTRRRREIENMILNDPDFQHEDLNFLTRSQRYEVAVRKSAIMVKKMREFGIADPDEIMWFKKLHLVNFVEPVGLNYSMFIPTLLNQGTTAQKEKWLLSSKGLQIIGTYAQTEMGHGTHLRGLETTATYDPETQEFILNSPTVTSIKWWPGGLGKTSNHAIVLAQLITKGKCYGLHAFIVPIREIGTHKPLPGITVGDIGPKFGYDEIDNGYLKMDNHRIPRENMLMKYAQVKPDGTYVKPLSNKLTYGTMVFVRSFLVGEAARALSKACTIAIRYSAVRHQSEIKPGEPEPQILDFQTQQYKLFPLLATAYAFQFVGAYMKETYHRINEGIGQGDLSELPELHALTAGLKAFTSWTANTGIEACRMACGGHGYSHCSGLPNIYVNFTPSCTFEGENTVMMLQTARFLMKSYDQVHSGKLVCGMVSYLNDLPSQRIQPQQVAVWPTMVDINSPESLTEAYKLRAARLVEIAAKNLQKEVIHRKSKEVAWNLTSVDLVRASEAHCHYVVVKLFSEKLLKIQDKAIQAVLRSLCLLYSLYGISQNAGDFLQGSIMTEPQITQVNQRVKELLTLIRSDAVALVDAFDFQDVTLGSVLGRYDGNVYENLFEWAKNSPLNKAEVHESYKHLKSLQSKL
Kind of assay: Kinobeads two-dose competition binding: ACOX1.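 Further: competition of compounds with immobilized broad-spectrum kinase inhibitor beads in cell lysate at 100 and 1,000 nM, 45 min at 4 °C, bead-bound protein quantified by label-free MS versus DMSO.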

Another assay addresses T2, CSNK2A1 (CK2) (Homo sapiens, UniProt P68400).
T2 construct: endogenous in cells
Kind of assay: Kinobeads two-dose competition binding: CK2 (CSNK2A1).

For the next assay, the target named is ABL1 (Homo sapiens, UniProt P00519). Put plainly: Kinobeads two-dose competition binding: ABL1. To be noted: sheet CATDS matrix 2; Gene Name ABL1.
ABL1, sequence (P00519 28-1130 limits assumed): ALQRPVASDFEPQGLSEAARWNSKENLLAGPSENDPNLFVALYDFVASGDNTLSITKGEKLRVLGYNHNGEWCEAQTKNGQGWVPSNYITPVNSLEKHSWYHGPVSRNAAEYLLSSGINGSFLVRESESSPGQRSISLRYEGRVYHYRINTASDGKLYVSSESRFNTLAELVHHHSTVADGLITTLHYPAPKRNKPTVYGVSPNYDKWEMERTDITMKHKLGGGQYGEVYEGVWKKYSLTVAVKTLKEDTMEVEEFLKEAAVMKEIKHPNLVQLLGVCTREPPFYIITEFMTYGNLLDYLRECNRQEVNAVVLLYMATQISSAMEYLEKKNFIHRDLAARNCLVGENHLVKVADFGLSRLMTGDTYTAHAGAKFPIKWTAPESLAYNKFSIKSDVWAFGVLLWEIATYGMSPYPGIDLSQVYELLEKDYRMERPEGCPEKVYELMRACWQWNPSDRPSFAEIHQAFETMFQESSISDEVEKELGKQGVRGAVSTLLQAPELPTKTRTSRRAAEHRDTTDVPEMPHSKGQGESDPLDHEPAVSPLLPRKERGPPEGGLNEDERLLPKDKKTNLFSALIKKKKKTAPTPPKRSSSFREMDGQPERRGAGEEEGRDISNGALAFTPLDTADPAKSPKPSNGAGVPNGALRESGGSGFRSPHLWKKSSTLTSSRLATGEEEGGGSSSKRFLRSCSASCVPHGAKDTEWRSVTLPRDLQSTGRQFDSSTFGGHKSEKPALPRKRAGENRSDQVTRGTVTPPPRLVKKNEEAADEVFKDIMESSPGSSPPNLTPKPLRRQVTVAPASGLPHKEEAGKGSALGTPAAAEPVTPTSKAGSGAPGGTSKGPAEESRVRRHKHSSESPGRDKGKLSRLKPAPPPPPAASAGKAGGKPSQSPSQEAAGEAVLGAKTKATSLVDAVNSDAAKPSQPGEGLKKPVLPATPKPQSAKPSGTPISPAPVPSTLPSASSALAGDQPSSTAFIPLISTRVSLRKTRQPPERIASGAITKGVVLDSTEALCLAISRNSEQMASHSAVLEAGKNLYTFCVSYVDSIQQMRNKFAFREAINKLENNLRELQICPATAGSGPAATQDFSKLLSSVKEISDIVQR
Setting [1] is: sheet CATDS matrix 2, Gene Name ACOX1.

The structures appear in SMILES notation. Where two headings read alike, the source gives them in different places.

T2 sequence (P68400 whole entry): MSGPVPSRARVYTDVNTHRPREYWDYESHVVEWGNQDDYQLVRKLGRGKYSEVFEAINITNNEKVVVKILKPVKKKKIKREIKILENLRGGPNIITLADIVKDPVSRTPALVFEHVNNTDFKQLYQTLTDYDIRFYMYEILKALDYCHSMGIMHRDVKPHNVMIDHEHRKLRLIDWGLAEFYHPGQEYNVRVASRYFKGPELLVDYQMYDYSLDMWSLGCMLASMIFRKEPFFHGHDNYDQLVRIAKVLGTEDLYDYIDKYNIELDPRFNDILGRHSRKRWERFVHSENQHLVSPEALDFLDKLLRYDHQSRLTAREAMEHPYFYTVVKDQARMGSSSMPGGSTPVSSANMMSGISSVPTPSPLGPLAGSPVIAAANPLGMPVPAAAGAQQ

Consider `Nc1ncnc2[nH]c(-c3ccccc3)nc12` [AH5015_KCGS], for which the CATDS on ACOX1 (setting [1]), on ACOX1 (target ACOX1), on CSNK2A1 (CK2) (target CSNK2A1;CSNK2A3) and on ABL1 was 0 in each case.

Turning to `CCN1CCN(Cc2ccc(Nc3ncc(F)c(-c4cc(F)c5nc(C)n(C(C)C)c5c4)n3)nc2)CC1` [Abemaciclib], the CATDS on ACOX1 (setting [1]) came out at 0; on ACOX1 (target ACOX1), 0; on CSNK2A1 (CK2) (target CSNK2A1;CSNK2A3), 0.05816; on ABL1, 0.

Turning to `CN(C)C/C=C/C(=O)Nc1cc2c(Nc3ccc(F)c(Cl)c3)ncnc2cc1O[C@H]1CCOC1` [Afatinib], the CATDS at ABL1 stood at 0.

Take `CCc1cc2c(cc1N1CCC(N3CCOCC3)CC1)C(C)(C)c1[nH]c3cc(C#N)ccc3c1C2=O` [Alectinib]: the CATDS at ACOX1 (setting [1]), at ACOX1 (target ACOX1), on CSNK2A1 (CK2) (target CSNK2A1;CSNK2A3) and on ABL1 was 0 each time.

Take `N#CC1(c2ccc(NC(=O)c3cccnc3NCc3ccncc3)cc2)CCCC1` [Apatinib]: the CATDS at ACOX1 (setting [1]), at ACOX1 (target ACOX1), on CSNK2A1 (CK2) (target CSNK2A1;CSNK2A3) and at ABL1 was 0 each time.

Regarding `C#Cc1cccc(Nc2ncnc3cc(OC)c(OC4CCN(C)CC4)cc23)c1` [BI00007366], the CATDS at ACOX1 (setting [1]) and at ABL1 was 0 each time.

Regarding `CC(C)N1CC(=O)N(C)c2cnc(Nc3cccc(S(=O)(=O)CCN4CCOCC4)c3)nc21` [BI00009348], the CATDS on ACOX1 (setting [1]) and at ABL1 was 0 throughout.

`COc1cc(Nc2ncc3c(C)nc(-c4cc5ccccc5[nH]4)n3n2)cc(OC)c1OC` [GW869516X]: the potency estimated from few doses on CSNK2A1 (CK2) (Kinobeads two-dose screen (binding), read-out: Kdapp CK2 (CSNK2A1)) was 78 nM. Further, the CATDSCK2 at CSNK2A1 (CK2) (selectivity score from Kinobeads two-dose data) was found to be 1.

Regarding `C[C@]12O[C@H](C[C@]1(O)CO)n1c3ccccc3c3c4c(c5c6ccccc6n2c5c31)CNC4=O` [Lestaurtinib], the potency estimated from few doses on CSNK2A1 (CK2) (read-out: Lestaurtinib Drugmatrix value, Gene Name CSNK2A1;CSNK2A3, target CSNK2A1;CSNK2A3, each column = one Lestaurtinib control replicate (batch_R1-R3)) is 291 nM.
